# Starred links: 1 amine or outer side, 2 acyl side, 3 side chain; linkers in the order of their positions; H or OH if unused. Positions of bridges follow the written chain, without caps; N, C: chain ends. Non-standard residues stand in square brackets, D forms with d. Residues, ends and D or L forms follow the SMILES beside them. *: point of attachment. NH(CH2)3NH(O2Oc(DOTA)) = O=C(O)CN1CCN(CC(=O)O)CCN(CC(=O)NCCOCCOCC(=O)NCCCN*)CCN(CC(=O)O)CC1; NH(CH2)3NHDOTA = O=C(O)CN1CCN(CC(=O)O)CCN(CC(=O)NCCCN*)CCN(CC(=O)O)CC1; DOTA = O=C(O)CN1CCN(CC(=O)O)CCN(CC(=O)*)CCN(CC(=O)O)CC1; mXylylene = c1cc(C[*:1])cc(C[*:2])c1; X2 = O=C(CN1CCC(N[*:1])CC1)[*:2]; Isovaleryl = CC(C)CC(=O)*; Orn = NCCC[C@H](N)C(=O)O; Dab = NCC[C@H](N)C(=O)O
# Molecular target: T1, CAIX-expressing human HT-29 colorectal cancer cells (Homo sapiens, UniProt Q16790)
# T1 construct: CAIX-expressing human HT-29 colorectal cancer cells; host or cells: HT-29 human colorectal cancer cells
# Test: FACS binding assay (IC50 determination, competition with tracer 3BP-2776 or 3BP-4149)
# Conditions: FACS binding assay, HT-29 cells, competition with tracer 3BP-2776 (10 nM, biotin-labeled), 4° C., 1 hour; read-out: pIC50 category (activity) (converted)
# How it was run: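 HT-29 cells in FACS buffer (PBS, 1% FCS) at 500.000 cells/ml were exposed to compounds competing with a labelled tracer, with biotinylated compounds detected by 1 μg/mL APC-streptavidin for 30 min on ice. APC/Cy5 median fluorescence was read by flow cytometry and IC50 derived by 4PL fit.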
row,Compound,IC50
1,CC(=O)N[C@H](C(=O)N[C@@H](Cc1ccc(O)cc1)C(=O)N[C@H]1CSCc2cccc(c2)CSC[C@@H](C(N)=O)NC(=O)[C@H](CO)NC(=O)[C@H](Cc2c[nH]c3ccccc23)NC(=O)[C@@H]2CCC(=O)NCCC[C@H](NC(=O)[C@H]3CCCN3C(=O)[C@H](CCC(=O)O)NC1=O)C(=O)N[C@@H](Cc1c[nH]c3ccccc13)C(=O)N[C@@H](CC(C)C)C(=O)N2)C(C)C [3BP-3958] (Ac-VYCE[dP][Orn]WLEWSC-NH2; linker 3-12 via mXylylene; lactam 6-9),10 to 79.4 nM
2,CC(=O)N[C@H](C(=O)N[C@@H](Cc1ccc(O)cc1)C(=O)N[C@H]1CSCc2cccc(c2)CSC[C@@H](C(N)=O)NC(=O)[C@H](CO)NC(=O)[C@H](Cc2c[nH]c3ccccc23)NC(=O)[C@@H]2CCC(=O)NCC[C@H](NC(=O)[C@H]3CCCN3C(=O)[C@H](CCC(=O)O)NC1=O)C(=O)N[C@@H](Cc1c[nH]c3ccccc13)C(=O)N[C@@H](CC(C)C)C(=O)N2)C(C)C [3BP-3960] (Ac-VYCE[dP][Dab]WLEWSC-NH2; linker 3-12 via mXylylene; lactam 6-9),10 to 79.4 nM

# Same assay, conditions: FACS competition on HT-29 cells, Tracer ID 3BP-2776 (10 nM, biotin-labeled), 4° C., 1 hour; read-out: pIC50 category (activity) (converted)
row,Compound,IC50
1,CC(=O)N[C@H](C(=O)N[C@@H](Cc1ccccc1)C(=O)N[C@H]1CSCc2cccc(c2)CSC[C@@H](C(N)=O)NC(=O)[C@H](CCC(=O)NCCCNC(=O)COCCOCCNC(=O)CN2CCN(CC(=O)O)CCN(CC(=O)O)CCN(CC(=O)O)CC2)NC(=O)[C@H](Cc2c[nH]c3ccccc23)NC(=O)[C@H]([C@@H](C)O)NC(=O)[C@H](CC(C)C)NC(=O)[C@H](Cc2c[nH]c3ccccc23)NC(=O)[C@H](CC(=O)O)NC(=O)[C@H]2CCCN2C(=O)[C@H](CCC(=O)O)NC1=O)C(C)C [3BP-3733] (Ac-VFCE[dP]DWLTWE(NH(CH2)3NH(O2Oc(DOTA)))C-NH2; linker 3-12 via mXylylene),< 10 nM
2,CC(=O)N[C@@H](CO)C(=O)N[C@@H](CCCNC(=N)N)C(=O)N[C@H]1CSCc2cccc(c2)CSC[C@@H](C(N)=O)NC(=O)[C@H](CCC(=O)NCCCNC(=O)COCCOCCNC(=O)CN2CCN(CC(=O)O)CCN(CC(=O)O)CCN(CC(=O)O)CC2)NC(=O)[C@H](Cc2c[nH]c3ccccc23)NC(=O)[C@H]([C@@H](C)O)NC(=O)[C@H](CC(C)C)NC(=O)[C@H](Cc2c[nH]c3ccccc23)NC(=O)[C@H](CC(=O)O)NC(=O)[C@H]2CCCN2C(=O)[C@H](CCC(=O)O)NC1=O [3BP-3735] (Ac-SRCE[dP]DWLTWE(NH(CH2)3NH(O2Oc(DOTA)))C-NH2; linker 3-12 via mXylylene),< 10 nM
3,CC(C)CC(=O)N[C@@H](CCCNC(=N)N)C(=O)N[C@H]1CSCc2cccc(c2)CSC[C@@H](C(N)=O)NC(=O)[C@H](CCC(=O)NCCCNC(=O)COCCOCCNC(=O)CN2CCN(CC(=O)O)CCN(CC(=O)O)CCN(CC(=O)O)CC2)NC(=O)[C@H](Cc2c[nH]c3ccccc23)NC(=O)[C@H]([C@@H](C)O)NC(=O)[C@H](CC(C)C)NC(=O)[C@H](Cc2c[nH]c3ccccc23)NC(=O)[C@H](CC(=O)O)NC(=O)[C@H]2CCCN2C(=O)[C@H](CCC(=O)O)NC1=O [3BP-3741] (Isovaleryl-RCE[dP]DWLTWE(NH(CH2)3NH(O2Oc(DOTA)))C-NH2; linker 2-11 via mXylylene),10 to 79.4 nM
4,CC(C)CC(=O)N[C@@H](Cc1ccccc1)C(=O)N[C@H]1CSCc2cccc(c2)CSC[C@@H](C(N)=O)NC(=O)[C@H](CCC(=O)NCCCNC(=O)COCCOCCNC(=O)CN2CCN(CC(=O)O)CCN(CC(=O)O)CCN(CC(=O)O)CC2)NC(=O)[C@H](Cc2c[nH]c3ccccc23)NC(=O)[C@H]([C@@H](C)O)NC(=O)[C@H](CC(C)C)NC(=O)[C@H](Cc2c[nH]c3ccccc23)NC(=O)[C@H](CC(=O)O)NC(=O)[C@H]2CCCN2C(=O)[C@H](CCC(=O)O)NC1=O [3BP-3742] (Isovaleryl-FCE[dP]DWLTWE(NH(CH2)3NH(O2Oc(DOTA)))C-NH2; linker 2-11 via mXylylene),< 10 nM
5,CC(C)CC(=O)N[C@@H](CO)C(=O)N[C@H]1CSCc2cccc(c2)CSC[C@@H](C(N)=O)NC(=O)[C@H](CCC(=O)NCCCNC(=O)COCCOCCNC(=O)CN2CCN(CC(=O)O)CCN(CC(=O)O)CCN(CC(=O)O)CC2)NC(=O)[C@H](Cc2c[nH]c3ccccc23)NC(=O)[C@H]([C@@H](C)O)NC(=O)[C@H](CC(C)C)NC(=O)[C@H](Cc2c[nH]c3ccccc23)NC(=O)[C@H](CC(=O)O)NC(=O)[C@H]2CCCN2C(=O)[C@H](CCC(=O)O)NC1=O [3BP-3743] (Isovaleryl-SCE[dP]DWLTWE(NH(CH2)3NH(O2Oc(DOTA)))C-NH2; linker 2-11 via mXylylene),< 10 nM
6,CC(=O)N[C@@H](Cc1ccc(O)cc1)C(=O)N[C@H]1CSCc2cccc(c2)CSC[C@@H](C(N)=O)NC(=O)[C@H](CCC(=O)NCCCNC(=O)CN2CCN(CC(=O)O)CCN(CC(=O)O)CCN(CC(=O)O)CC2)NC(=O)[C@H](Cc2c[nH]c3ccccc23)NC(=O)[C@H]([C@@H](C)O)NC(=O)[C@H](CC(C)C)NC(=O)[C@H](Cc2c[nH]c3ccccc23)NC(=O)[C@H](CC(=O)O)NC(=O)[C@H]2CCCN2C(=O)[C@H](CCC(=O)O)NC1=O [3BP-3841] (Ac-YCE[dP]DWLTWE(NH(CH2)3NHDOTA)C-NH2; linker 2-11 via mXylylene),< 10 nM
7,CC(C)CC(=O)N[C@@H](CC(=O)O)C(=O)N[C@H]1CSCc2cccc(c2)CSC[C@@H](C(N)=O)NC(=O)[C@H](CCC(=O)NCCCNC(=O)COCCOCCNC(=O)CN2CCN(CC(=O)O)CCN(CC(=O)O)CCN(CC(=O)O)CC2)NC(=O)[C@H](Cc2c[nH]c3ccccc23)NC(=O)[C@H]([C@@H](C)O)NC(=O)[C@H](CC(C)C)NC(=O)[C@H](Cc2c[nH]c3ccccc23)NC(=O)[C@H](CC(=O)O)NC(=O)[C@H]2CCCN2C(=O)[C@H](CCC(=O)O)NC1=O [3BP-3871] (Isovaleryl-DCE[dP]DWLTWE(NH(CH2)3NH(O2Oc(DOTA)))C-NH2; linker 2-11 via mXylylene),10 to 79.4 nM
8,CC(C)CC(=O)N[C@@H](CCC(=O)O)C(=O)N[C@H]1CSCc2cccc(c2)CSC[C@@H](C(N)=O)NC(=O)[C@H](CCC(=O)NCCCNC(=O)COCCOCCNC(=O)CN2CCN(CC(=O)O)CCN(CC(=O)O)CCN(CC(=O)O)CC2)NC(=O)[C@H](Cc2c[nH]c3ccccc23)NC(=O)[C@H]([C@@H](C)O)NC(=O)[C@H](CC(C)C)NC(=O)[C@H](Cc2c[nH]c3ccccc23)NC(=O)[C@H](CC(=O)O)NC(=O)[C@H]2CCCN2C(=O)[C@H](CCC(=O)O)NC1=O [3BP-3872] (Isovaleryl-ECE[dP]DWLTWE(NH(CH2)3NH(O2Oc(DOTA)))C-NH2; linker 2-11 via mXylylene),10 to 79.4 nM
9,CC(=O)N[C@H](C(=O)N[C@@H](Cc1ccc(O)cc1)C(=O)N[C@H]1CSCc2cccc(c2)CSC[C@@H](C(N)=O)NC(=O)[C@H](CO)NC(=O)[C@H](Cc2c[nH]c3ccccc23)NC(=O)[C@@H]2CCC(=O)NCCCC[C@H](NC1=O)C(=O)N1CCC[C@@H]1C(=O)N[C@@H](CC(=O)O)C(=O)N[C@@H](Cc1c[nH]c3ccccc13)C(=O)N[C@@H](CC(C)C)C(=O)N2)C(C)C [3BP-3888] (Ac-VYCK[dP]DWLEWSC-NH2; linker 3-12 via mXylylene; lactam 4-9),10 to 79.4 nM
10,CC(=O)N[C@H](C(=O)N[C@@H](Cc1ccc(O)cc1)C(=O)N[C@H]1CSCc2cccc(c2)CSC[C@@H](C(N)=O)NC(=O)[C@H](CO)NC(=O)[C@H](Cc2c[nH]c3ccccc23)NC(=O)[C@@H]2CCC(=O)NCCCC[C@H](NC(=O)[C@H]3CCCN3C(=O)[C@H](CCC(=O)O)NC1=O)C(=O)N[C@@H](Cc1c[nH]c3ccccc13)C(=O)N[C@@H](CC(C)C)C(=O)N2)C(C)C [3BP-3890] (Ac-VYCE[dP]KWLEWSC-NH2; linker 3-12 via mXylylene; lactam 6-9),< 10 nM
11,CC(=O)N[C@H](C(=O)N[C@@H](Cc1ccc(O)cc1)C(=O)N[C@H]1CSCc2cccc(c2)CSC[C@@H](C(N)=O)NC(=O)[C@H](CO)NC(=O)[C@H](Cc2c[nH]c3ccccc23)NC(=O)[C@@H]2CCCCNC(=O)CC[C@H](NC1=O)C(=O)N1CCC[C@@H]1C(=O)N[C@@H](CC(=O)O)C(=O)N[C@@H](Cc1c[nH]c3ccccc13)C(=O)N[C@@H](CC(C)C)C(=O)N2)C(C)C [3BP-3899] (Ac-VYCE[dP]DWLKWSC-NH2; linker 3-12 via mXylylene; lactam 4-9),100 to 794 nM
12,CC(=O)N[C@H](C(=O)N[C@@H](Cc1ccc(O)cc1)C(=O)N[C@H]1CSCc2cccc(c2)CSC[C@@H](C(N)=O)NC(=O)[C@H](CO)NC(=O)[C@H](Cc2c[nH]c3ccccc23)NC(=O)[C@@H]2CCCCNC(=O)CC[C@H](NC(=O)[C@H]3CCCN3C(=O)[C@H](CCC(=O)O)NC1=O)C(=O)N[C@@H](Cc1c[nH]c3ccccc13)C(=O)N[C@@H](CC(C)C)C(=O)N2)C(C)C [3BP-3901] (Ac-VYCE[dP]EWLKWSC-NH2; linker 3-12 via mXylylene; lactam 6-9),10 to 79.4 nM
13,CC(C)C[C@@H]1NC(=O)[C@H](Cc2c[nH]c3ccccc23)NC(=O)[C@@H]2CCCCNC(=O)CC[C@H](NC1=O)C(=O)N[C@@H](Cc1c[nH]c3ccccc13)C(=O)N[C@@H](CO)C(=O)N[C@H](C(N)=O)CSCc1cccc(c1)CSC[C@H](NC(=O)[C@H](Cc1ccc(O)cc1)NC(=O)[C@@H](NC(=O)CN1CCC(NC(=O)CN3CCN(CC(=O)O)CCN(CC(=O)O)CCN(CC(=O)O)CC3)CC1)C(C)C)C(=O)N[C@@H](CCC(=O)O)C(=O)N1CCC[C@@H]1C(=O)N2 [3BP-3933] ({DOTA}-[X2]VYCE[dP]KWLEWSC-NH2; linker 4-13 via mXylylene; lactam 7-10),10 to 79.4 nM
14,CC(=O)N[C@H](C(=O)N[C@@H](Cc1ccc(O)cc1)C(=O)N[C@H]1CSCc2cccc(c2)CSC[C@@H](C(N)=O)NC(=O)[C@H](CO)NC(=O)[C@H](Cc2c[nH]c3ccccc23)NC(=O)[C@H]2CCC(=O)NCCCC[C@H](NC(=O)[C@H]3CCCN3C(=O)[C@H](CCC(=O)O)NC1=O)C(=O)N[C@@H](Cc1c[nH]c3ccccc13)C(=O)N[C@@H](CC(C)C)C(=O)N2)C(C)C [3BP-3957] (Ac-VYCE[dP]KWL[dE]WSC-NH2; linker 3-12 via mXylylene; lactam 6-9),< 10 nM

# From patent publication US20250339569A1, “CARBONIC ANHYDRASE IX LIGANDS” (priority 2021, published 2025)
